From patent publication US9146237B2, “In vitro assay method using immunological technique” (BASF Beauty Care Solutions France S.A.S., priority 2011, dated 2015)

How the values were obtained:
[1] = test system: type I collagen in the ECM; experiment: Assay of type I collagen directly on the ECM of fibroblast cultures (anticollagen I antibody, europium TRF); assay type: cell-based, human
Experimental: After 48 hours of culture post-confluency, the culture medium was removed and discarded. A lysis step was carried out: 110 μl of an ammonium hydroxide solution at 20 mM for 10 minutes at room temperature and with stirring. The lysate was collected and analysed. The double-stranded DNA contained in the lysate was assayed by using the bisbenzimide method (Picogreen Kit, Invitrogen). The collagen in the ECM was assayed directly on the ECM by using an anticollagen I antibody. A secondary antibody conjugated to europium was used with a detection solution and the fluorescence was measured. (Delfia® kit—Perkin Elmer). The fluorescence results were rationalized relative to the amount of dsDNA measured. The experiment was carried out without active ingredient on the one hand and with ascorbic acid solubilized in PBS at different concentrations from 0.1 to 100 μM. The experiment was carried out according to the protocol described in example 1 with fibroblasts extracted from a biopsy from a donor. The cells at confluency were incubated in the presence of the active ingredients for 48 hours at 37° C. under 0.5% CO2 or without active ingredient (control) for 48 hours at 37° C. under 0.5% CO2. […]

[2] = test system: intracellular procollagen; experiment: Procollagen assay by ELISA (PIPc kit) on collected lysis medium; assay type: cell-based, human; conditions: Example 4
Experimental: A lysis step was carried out: 110 μl of an ammonium hydroxide solution at 20 mM for 10 minutes at room temperature and with stirring. The experiment was carried out without active ingredient on the one hand and with ascorbic acid solubilized in PBS at different concentrations from 0.1 to 100 μM. On the collected lysis medium, a procollagen assay (PIPc kit, TAKARA) by ELISA was carried out for determining the amount of intracellular procollagen (Table 4.2). A DNA assay (Picogreen kit, Invitrogen) was also carried out for rationalizing all of the measurements in each well to the quantity of viable cells. The amounts of collagen and procollagen measured were rationalized to the amount of DNA present in each well.

O=C1O[C@H]([C@@H](O)CO)C(O)=C1O [Ascorbic acid]
Effect on amount of collagen I in the ECM ([1]; 50 μM, Example 6): significant increase in the amount of collagen I in the ECM | Concentration up to which the effect on content of collagen I in the ECM is dose-dependent (threshold effect) ([1]; Example 4, 0.1 to 100 μM): up to 50 μM | Procollagen concentration in the intracellular compartment versus untreated control [2]: less than that observed with the untreated control
